Key:
[1] = test system: influenza A/California/07/2009 (H1N1), influenza A/PR/8/1934 (H1N1), influenza A/Vietnam/1194/2004 (H5N1); test: microbe, parasite or virus in culture; type: cell-based, influenza A virus; settings: for IC50: Influenza A virus, MDCK, 50 h
[2] = test system: influenza A/PuertoRico/1934 (H1N1); test: Protection of mice against lethal influenza H1N1 challenge; type: in vivo, BALB/c mice; settings: 5×LD50 influenza A/PuertoRico/1934 (H1N1) day 0; 25 mg/kg orally once daily day 1 to day 7
[3] = test system: SARS-CoV-2; type: cell-based
[4] = test system: SARS-CoV-2; test: Protection of mice against lethal SARS-CoV-2 challenge; type: in vivo, F1 mice of BALB/c/C57BL6 mice; settings: 5×LD50 SARS-CoV-2 day 0; 25 mg/kg orally once daily day 1 to day 7

Structure (SMILES) | IC50 [1] | other results
CCc1cc2c(cc1N1CCC(N3CCOCC3)CC1)C(C)(C)c1[nH]c3cc(C#N)ccc3c1C2=O [alectinib, 9-ethyl-6,6-dimethyl-8-(4-morpholin-4-ylpiperidin-1-yl)-11-oxo-5H-benzo[b]carbazole-3-carbonitrile] | 1000 to 4000 nM | –
COc1cc(N2CCC(N3CCN(C)CC3)CC2)ccc1Nc1ncc(Cl)c(Nc2ccccc2P(C)(C)=O)n1 [brigatinib, 5-chloro-4-N-(2-dimethylphosphorylphenyl)-2-N-[2-methoxy-4-[4-(4-methylpiperazin-1-yl)piperidin-1-yl]phenyl]pyrimidine-2,4-diamine] | 1000 to 4000 nM | survival of mice [2]: 12.5%
C[C@H]1Oc2cc(cnc2N)-c2c(nn(C)c2C#N)CN(C)C(=O)c2ccc(F)cc21 [lorlatinib] | – | inhibition of SARS-CoV-2 [3]: but not lorlatinib, inhibited SARS-CoV-2; virus assembly/secretion (viral OD, viral titres) [1]: viral titres remain high for all doses tested
C[C@@H](Oc1cc(-c2cnn(C3CCNCC3)c2)cnc1N)c1c(Cl)ccc(F)c1Cl [crizotinib, 3-[(1R)-1-(2,6-dichloro-3-fluorophenyl)ethoxy]-5-(1-piperidin-4-ylpyrazol-4-yl)pyridin-2-amine] | 1000 to 4000 nM | survival of mice [2]: 38%
CN1CCN(c2ccc(C(=O)Nc3n[nH]c4ccc(Cc5cc(F)cc(F)c5)cc34)c(NC3CCOCC3)c2)CC1 [entrectinib, N-[5-[(3,5-difluorophenyl)methyl]-1H-indazol-3-yl]-4-(4-methylpiperazin-1-yl)-2-(oxan-4-ylamino)benzamide] | 1000 to 4000 nM | –
Cc1cc(Nc2ncc(Cl)c(Nc3ccccc3S(=O)(=O)C(C)C)n2)c(OC(C)C)cc1C1CCNCC1 [ceritinib, 5-chloro-2-N-(5-methyl-4-piperidin-4-yl-2-propan-2-yloxyphenyl)-4-N-(2-propan-2-ylsulfonylphenyl)pyrimidine-2,4-diamine] | 100 to 1000 nM | survival of mice [4]: 29%
C[C@@H]1CN(C(=O)c2ccc(NC(=O)c3cc(O[C@H](C)c4c(Cl)ccc(F)c4Cl)c(N)nn3)cc2)C[C@H](C)N1 [ensartinib, 6-amino-5-[(1R)-1-(2,6-dichloro-3-fluorophenyl)ethoxy]-N-[4-[(3R,5S)-3,5-dimethylpiperazine-1-carbonyl]phenyl]pyridazine-3-carboxamide] | 1000 to 4000 nM | –
